From patent US7981893B2, “Heteroaryl compounds, compositions thereof, and methods of treatment therewith” (Signal Pharmaceuticals, LLC, priority 2006, dated 2011)

Columns and labels:
PKCθ = target: T1, PKCθ (Homo sapiens, UniProt Q04759); test: PKCθ IMAP Assay; format: biochemical; details: IMAP fluorescence polarization screening assay, 35 μM ATP
T1 construct: purchased Invitrogen
Protocol: The following is an example of an assay that can be used to determine the PKCθ inhibitory activity of a test compound. Reagents are prepared as follows:
Assay Buffer: 50 mM HEPES (pH 7.6), 10 mM MgCl, 0.1 mM EDTA, 5 mM MBP, 0.01% Triton, 1 mM DTT, 0.05 mg/ml phosphatidyl serine, 0.05 mg/ml diacylglycerol.
The final concentration of PKCθ (Invitrogen) is 0.5 nM. The final concentration of substrate (FAM-AKRRRLSSLRA) (Molecular Devices) is 100 nM. The final concentration of ATP in the reaction is 35 μM. The final concentration of DMSO in the reaction is 2.5%.
Enzyme is kept in 5 μl aliquots and stored at −80° C. prior to use. Test compound is allowed to pre-incubate with enzyme for 45 minutes before the reactions is initiated.
The reaction mixture consists of: 5 μl of test compound in 10% DMSO, 5 μl of 400 nM substrate (FAM-AKRRRLSSLRA), 5 μl of […] PKCθ, and 5 μl of 140 μM ATP (ATP is added to the reaction mixture last to initiate the reaction) per well.
The reaction is allowed to proceed for 60 minutes and is terminated by adding 30 μl per well of 90% Progressive A buffer/10% Progressive B buffer and a 1:400 dilution of binding beeds (Molecular Devices).
The reaction is given a binding incubation time of at least 30 minutes prior to reading the fluorescence polarization signal on an Analyst reader (the following detector settings are used: fluorescein excitation-485 nm, fluorescein emission-530 nm, fluorescein dichroic-505 nm).

mTOR = target: T2, mTOR (Homo sapiens, UniProt P42345); test: mTOR HTR-FRET Assay; format: biochemical; details: HTR-FRET screening assay, GST-p70S6 kinase fragment substrate
T2 construct: Dilute TOR fraction 1:14 in “Simple TOR Buffer”
Protocol: The following is an example of an assay that can be used to determine the mTOR inhibitory activity of a test compound. Reagents are prepared as follows:
“Simple TOR buffer” (used to dilute high glycerol TOR fraction): 10 mM Tris pH 7.4, 100 mM NaCl, 0.1% Tween-20, 1 mM DTT (from 1M stock frozen at −20° C. just prior to use). For convenience a large quantity of “Simple TOR buffer” w/o DTT can be stored at 4° C. It can be brought to room temperature and DTT added just prior to dilution of TOR fraction.
5×KB/5×Mn/5×ATP solution (used to dilute substrate GST-p70S6kin 81 a.a. just prior to use) (40 ml screen quantity shown):
Enzyme solution: Dilute TOR fraction 1:14 in “Simple TOR Buffer”. For current lot that is 640 μg/ml TOR fraction diluted 14× to yield 45.7 μg/ml TOR in buffer (i.e. 7.85 ml TOR pooled fraction+102.1 ml Simple TOR buffer=110 ml 14× diluted TOR fraction). Each Enzyme Lot must be QC'd prior to assay.
Substrate solution: This may be prepared just prior to assay if preferred. Dilute 5.3 mg/ml GST-p70S6kinase fragment stock to 3.5 μg/ml (97 nM) working stock in 5×KB/5×Mn/5×ATP solution (i.e. 26.41 μL (5.3 mg/ml) GST-p70S6+40 ml 5×KB/5×Mn/5×ATP=40 ml 3.5 μg/ml (97 nM)).
Assay Buffer (for dilution of Antibodies used in Antibody Detection Reagent):
Antibody Detection Reagent (this reagent should be made just prior to addition to Assay Plates):
Using PlateTrak program (Screen) or Matrix Pipettor (SAR), 19.5 μL of diluted TOR fraction is added to assay plate in all test, reference or positive control wells. 19.5 μL of “Simple TOR buffer” is added to all negative control wells. If treating multiple plates with the same compounds, can increase volume of enzyme to multiples of 19.5 μL in a tall 384 well polypropylene plate.
Using EP3, 0.5 μl of test, reference or control DMSO is added to each well with mixing. Plates are incubated for 30 minutes at room temperature.
Using PlateTrak program (Screen) or Matrix Pipettor (SAR) 5 μL of 5×KB/5×Mn/5×ATP/5× substrate solution is added to each well of the assay plate to start the reaction. The solutions are mixed well and incubated for 2 hours at room temperature.
Using PlateTrak program (Screen) or Matrix Pipettor (SAR) 5 μL of 60 mM EDTA is added to stop the reaction. The solutions are mixed well and allowed to sit for 15-20 minutes before the next step.
Using PlateTrak program (Screen) or Matrix Pipettor (SAR) 10 μl of Antibody Detection Reagent is added. The solutions are mixes well and incubated for 5 hours to O/N to allow antibodies to form complexes with phosphorylated substrate.
Plates are read on AnalystHT using protocol Multi-Method protocol.

T1 sequence (Q04759 whole entry): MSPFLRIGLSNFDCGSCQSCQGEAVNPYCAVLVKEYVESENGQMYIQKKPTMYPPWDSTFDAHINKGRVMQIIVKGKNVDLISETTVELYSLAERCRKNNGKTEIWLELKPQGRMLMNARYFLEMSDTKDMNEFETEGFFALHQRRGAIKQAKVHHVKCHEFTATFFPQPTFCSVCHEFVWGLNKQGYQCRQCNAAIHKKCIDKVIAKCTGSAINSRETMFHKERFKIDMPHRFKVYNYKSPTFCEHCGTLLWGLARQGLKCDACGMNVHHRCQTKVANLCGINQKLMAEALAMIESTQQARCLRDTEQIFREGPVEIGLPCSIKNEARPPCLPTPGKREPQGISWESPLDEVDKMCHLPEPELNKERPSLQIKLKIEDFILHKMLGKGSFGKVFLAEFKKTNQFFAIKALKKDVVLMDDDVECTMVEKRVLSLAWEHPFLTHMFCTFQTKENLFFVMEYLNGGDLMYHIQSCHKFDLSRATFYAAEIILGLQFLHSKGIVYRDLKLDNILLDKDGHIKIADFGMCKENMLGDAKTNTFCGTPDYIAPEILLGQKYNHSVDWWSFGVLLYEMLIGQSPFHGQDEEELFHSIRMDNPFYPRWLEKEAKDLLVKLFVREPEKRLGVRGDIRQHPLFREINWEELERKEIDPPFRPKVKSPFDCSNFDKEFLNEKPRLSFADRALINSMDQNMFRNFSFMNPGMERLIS

SMILES	IC50 (PKCθ)	IC50 (mTOR)
CC(c1cccc(F)c1)n1c(=O)[nH]c2ncc(-c3cccc4ncccc34)nc21 (stereo not shown) [Compound 54, 1-(1-(3-fluorophenyl)ethyl)-6-(quinolin-5-yl)-1H-imidazo[4,5-b]pyrazin-2(3H)-one]	0.1 to 5 µM	5.1 to 10 µM
CC(c1ccc(Cl)cc1)n1c(=O)[nH]c2ncc(-c3cccc4ncccc34)nc21 (stereo not shown) [Compound 65, 1-(1-(4-chlorophenyl)ethyl)-6-(quinolin-5-yl)-1H-imidazo[4,5-b]pyrazin-2(3H)-one]	0.1 to 5 µM	5.1 to 10 µM
COc1cccc(C(C)n2c(=O)[nH]c3ncc(-c4cccc5ncccc45)nc32)c1 (stereo not shown) [Compound 55, 1-(1-(3-methoxyphenyl)ethyl)-6-(quinolin-5-yl)-1H-imidazo[4,5-b]pyrazin-2(3H)-one]	0.1 to 5 µM	5.1 to 10 µM
CC(c1ccccc1)n1c(=O)[nH]c2ncc(-c3cccc4cnccc34)nc21 (stereo not shown) [Compound 61, 6-(isoquinolin-5-yl)-1-(1-phenylethyl)-1H-imidazo[4,5-b]pyrazin-2(3H)-one]	10.1 to 20 µM	5.1 to 10 µM
COc1cc(-c2cnc3[nH]c(=O)n(CC4CCOCC4)c3n2)cc(OC)c1OC [Compound 2, 1-((tetrahydro-2H-pyran-4-yl)methyl)-6-(3,4,5-trimethoxyphenyl)-1H-imidazo[4,5-b]pyrazin-2(3H)-one]	> 30 µM	0.1 to 5 µM
O=c1[nH]c2ncc(-c3cccc4ncccc34)nc2n1CC1CCCC1 [Compound 50, 1-(cyclopentylmethyl)-6-(quinolin-5-yl)-1H-imidazo[4,5-b]pyrazin-2(3H)-one]	10.1 to 20 µM	0.1 to 5 µM
CC(c1ccc(F)cc1)n1c(=O)[nH]c2ncc(-c3cccc4ncccc34)nc21 (stereo not shown) [Compound 52, 1-(1-(4-fluorophenyl)ethyl)-6-(quinolin-5-yl)-1H-imidazo[4,5-b]pyrazin-2(3H)-one]	0.1 to 5 µM	5.1 to 10 µM
COc1cccc(Cn2c(=O)[nH]c3ncc(-c4ccc(S(C)(=O)=O)cc4)nc32)c1 [Compound 4, 1-(3-methoxybenzyl)-6-(4-(methylsulfonyl)phenyl)-1H-imidazo[4,5-b]pyrazin-2(3H)-one]	> 30 µM	0.1 to 5 µM
COc1ccc(C(C)n2c(=O)[nH]c3ncc(-c4cccc5ncccc45)nc32)cc1 (stereo not shown) [Compound 56, 1-(1-(4-methoxyphenyl)ethyl)-6-(quinolin-5-yl)-1H-imidazo[4,5-b]pyrazin-2(3H)-one]	0.1 to 5 µM	> 30 µM
Cc1nc2[nH]c(=O)n([C@@H](C)c3ccccc3)c2nc1-c1cccc2ncccc12 [Compound 68, 5-methyl-1-((S)-1-phenylethyl)-6-(quinolin-5-yl)-1H-imidazo[4,5-b]pyrazin-2(3H)-one]	> 30 µM	> 30 µM
O=c1[nH]c2ncc(-c3cccc4ncccc34)nc2n1C1CCC(O)CC1 (stereo not shown) [Compound 60, 1-((1r,4r)-4-hydroxycyclohexyl)-6-(quinolin-5-yl)-1H-imidazo[4,5-b]pyrazin-2(3H)-one]	20.1 to 30 µM	> 30 µM
COc1ccc(Cn2c(=O)[nH]c3ncc(-c4cccc5ncccc45)nc32)cc1 [Compound 15, 1-(4-methoxybenzyl)-6-(quinolin-5-yl)-1H-imidazo[4,5-b]pyrazin-2(3H)-one]	> 30 µM	0.1 to 5 µM
C[C@H](c1ccccc1)n1c(=O)[nH]c2ccc(-c3cccc4ncccc34)nc21 [Compound 27, (R)-3-(1-phenylethyl)-5-(quinolin-5-yl)-1H-imidazo[4,5-b]pyridin-2(3H)-one]	5.1 to 10 µM	> 30 µM
CC(C)n1c(=O)[nH]c2ncc(-c3cccc4ncccc34)nc21 [Compound 64, 1-isopropyl-6-(quinolin-5-yl)-1H-imidazo[4,5-b]pyrazin-2(3H)-one]	20.1 to 30 µM	5.1 to 10 µM
CC[C@H](c1ccccc1)n1c(=O)[nH]c2ncc(-c3cccc4ncccc34)nc21 [Compound 45, (R)-1-(1-phenylpropyl)-6-(quinolin-5-yl)-1H-imidazo[4,5-b]pyrazin-2(3H)-one]	0.1 to 5 µM	> 30 µM
O=c1[nH]c2ncc(-c3cccc4ncccc34)nc2n1C1CCCC1 [Compound 53, 1-cyclopentyl-6-(quinolin-5-yl)-1H-imidazo[4,5-b]pyrazin-2(3H)-one]	> 30 µM	5.1 to 10 µM
C[C@H](c1ccccc1)n1c(=O)[nH]c2ncc(-c3cccc4ncccc34)nc21 [Compound 10, (R)-1-(1-phenylethyl)-6-(quinolin-5-yl)-1H-imidazo[4,5-b]pyrazin-2(3H)-one]	0.1 to 5 µM	10.1 to 20 µM
O=c1[nH]c2ncc(-c3cccc4ncccc34)nc2n1[C@H](CO)c1ccccc1 [Compound 41, (S)-1-(2-hydroxy-1-phenylethyl)-6-(quinolin-5-yl)-1H-imidazo[4,5-b]pyrazin-2(3H)-one]	0.1 to 5 µM	5.1 to 10 µM
O=c1[nH]c2ncc(-c3cccc4ncccc34)nc2n1[C@@H](CO)c1ccccc1 [Compound 40, (R)-1-(2-hydroxy-1-phenylethyl)-6-(quinolin-5-yl)-1H-imidazo[4,5-b]pyrazin-2(3H)-one]	10.1 to 20 µM	10.1 to 20 µM
CC(c1ccccc1)n1c(=O)[nH]c2ncc(-c3cccc(NS(C)(=O)=O)c3)nc21 (stereo not shown) [Compound 84, N-(3-(2-oxo-3-(1-phenylethyl)-2,3-dihydro-1H-imidazo[4,5-b]pyrazin-5-yl)phenyl)methanesulfonamide]	10.1 to 20 µM	0.1 to 5 µM
C[C@@H](c1ccccc1)n1c(=O)[nH]c2cnc(-c3cccc4ncccc34)cc21 [Compound 25, (S)-1-(1-phenylethyl)-6-(quinolin-5-yl)-1H-imidazo[4,5-c]pyridin-2(3H)-one]	> 30 µM	> 30 µM
O=c1[nH]c2ncc(-c3cccc4ncccc34)nc2n1C1CCCOC1 (stereo not shown) [Compound 58, 6-(quinolin-5-yl)-1-(tetrahydro-2H-pyran-3-yl)-1H-imidazo[4,5-b]pyrazin-2(3H)-one]	> 30 µM	10.1 to 20 µM
C[C@@H](c1ccccc1)n1c(=O)[nH]c2ncc(-c3cccc4ncccc34)nc21 [Compound 5, (S)-1-(1-phenylethyl)-6-(quinolin-5-yl)-1H-imidazo[4,5-b]pyrazin-2(3H)-one]	> 30 µM	5.1 to 10 µM
Cc1nc2[nH]c(=O)n([C@H](C)c3ccccc3)c2nc1-c1cccc2ncccc12 [Compound 69, 5-methyl-1-((R)-1-phenylethyl)-6-(quinolin-5-yl)-1H-imidazo[4,5-b]pyrazin-2(3H)-one]	5.1 to 10 µM	> 30 µM
COc1cccc(Cn2c(=O)[nH]c3ncc(-c4cccc5ncccc45)nc32)c1 [Compound 47, 1-(3-methoxybenzyl)-6-(quinolin-5-yl)-1H-imidazo[4,5-b]pyrazin-2(3H)-one]	> 30 µM	0.1 to 5 µM
O=c1[nH]c2ncc(-c3cccc4ncccc34)nc2n1C1CCOCC1 [Compound 57, 6-(quinolin-5-yl)-1-(tetrahydro-2H-pyran-4-yl)-1H-imidazo[4,5-b]pyrazin-2(3H)-one]	> 30 µM	> 30 µM
